In ChEMBL document CHEMBL5625233, “Exploring positions 6 and 7 of a quinazoline-based scaffold leads to changes in selectivity and potency towards RIPK2/3 kinases” (Eur J Med Chem, 2023):
Calls of active or inactive are those of the source. No cut-off for these calls is given here.

Experiments:
[1] = target: T1, Receptor-interacting serine/threonine-protein kinase 2 (Homo sapiens, UniProt O43353); assay: Inhibition of N-terminal polyHis-tagged human RIPK2 (8 to 310 residues) expressed in Sf9 cells using MBP as substrate preincubated for 15 mins followed by ATP addition measured after 90 mins by ADP-Glo assay
T1 sequence (O43353 whole entry, the tested form may be a part): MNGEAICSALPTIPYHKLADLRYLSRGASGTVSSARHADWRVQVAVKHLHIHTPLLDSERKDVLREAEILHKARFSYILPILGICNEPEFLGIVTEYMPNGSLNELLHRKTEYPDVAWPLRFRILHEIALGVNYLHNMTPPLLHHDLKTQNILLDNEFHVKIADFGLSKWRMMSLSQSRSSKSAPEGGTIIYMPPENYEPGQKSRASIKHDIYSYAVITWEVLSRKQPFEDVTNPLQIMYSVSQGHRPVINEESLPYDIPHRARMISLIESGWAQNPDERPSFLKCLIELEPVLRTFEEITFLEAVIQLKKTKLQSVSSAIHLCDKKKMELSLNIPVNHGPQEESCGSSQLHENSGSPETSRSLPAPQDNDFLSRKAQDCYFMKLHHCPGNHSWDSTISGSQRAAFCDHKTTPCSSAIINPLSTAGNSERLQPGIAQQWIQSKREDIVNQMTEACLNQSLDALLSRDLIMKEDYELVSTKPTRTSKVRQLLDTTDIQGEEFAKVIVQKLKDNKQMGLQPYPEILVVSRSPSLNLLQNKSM

[2] = target: Serine/threonine-protein kinase 10 (Homo sapiens) (UniProt O94804); assay: Inhibition of human LOK relative to control; details: concentration not given here
[3] = target: Tyrosine-protein kinase Fyn (Homo sapiens) (UniProt P06241); assay: Inhibition of human FYN relative to control; details: concentration not given here
Tyrosine-protein kinase Fyn (Homo sapiens), sequence (P06241 2-537 limits assumed): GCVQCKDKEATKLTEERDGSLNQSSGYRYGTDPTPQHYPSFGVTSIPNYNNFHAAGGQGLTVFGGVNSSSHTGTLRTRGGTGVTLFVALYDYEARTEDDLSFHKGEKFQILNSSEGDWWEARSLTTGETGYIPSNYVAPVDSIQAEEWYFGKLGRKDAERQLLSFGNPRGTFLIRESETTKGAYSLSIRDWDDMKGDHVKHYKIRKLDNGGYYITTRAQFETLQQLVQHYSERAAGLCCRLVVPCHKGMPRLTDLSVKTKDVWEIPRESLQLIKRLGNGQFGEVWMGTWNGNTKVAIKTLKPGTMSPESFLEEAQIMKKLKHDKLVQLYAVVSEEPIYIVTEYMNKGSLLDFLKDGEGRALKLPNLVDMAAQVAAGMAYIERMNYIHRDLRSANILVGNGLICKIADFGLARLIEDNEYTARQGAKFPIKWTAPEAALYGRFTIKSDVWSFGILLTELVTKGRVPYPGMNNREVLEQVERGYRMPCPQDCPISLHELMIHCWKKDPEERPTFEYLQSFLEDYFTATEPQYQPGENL

[4] = Metabolic stability in mouse plasma assessed as compound remaining at 5 uM incubated for 120 mins by ECHO-MS analysis; type: ADME, cell-free; details: for remaining at 2 h, 5 µM: read-out: Stability
[5] = target: T2, Receptor-interacting serine/threonine-protein kinase 3 (Homo sapiens, UniProt Q9Y572); assay: Inhibition of N-terminal polyHis-tagged human RIPK3 (1 to 307 residues) expressed in Sf9 cells using MBP as substrate preincubated for 15 mins followed by ATP addition measured after 90 mins by ADP-Glo assay
Target sequence in this assay (Q9Y572 whole entry, the tested form may be a part): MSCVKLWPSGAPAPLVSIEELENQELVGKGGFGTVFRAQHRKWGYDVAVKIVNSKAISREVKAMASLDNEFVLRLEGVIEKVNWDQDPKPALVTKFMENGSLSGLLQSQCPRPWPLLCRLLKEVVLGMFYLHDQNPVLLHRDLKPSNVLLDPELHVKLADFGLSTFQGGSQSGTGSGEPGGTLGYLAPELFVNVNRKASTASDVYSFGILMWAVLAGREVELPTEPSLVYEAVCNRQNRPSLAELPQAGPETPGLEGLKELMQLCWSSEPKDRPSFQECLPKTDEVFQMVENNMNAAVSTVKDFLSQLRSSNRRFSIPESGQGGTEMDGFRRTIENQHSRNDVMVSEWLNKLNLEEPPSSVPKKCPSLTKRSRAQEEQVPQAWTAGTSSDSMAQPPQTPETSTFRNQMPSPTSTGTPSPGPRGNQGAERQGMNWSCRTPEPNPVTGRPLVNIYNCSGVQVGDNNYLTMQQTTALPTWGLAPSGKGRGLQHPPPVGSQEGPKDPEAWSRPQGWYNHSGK

[6] = target: T1, Receptor-interacting serine/threonine-protein kinase 2; assay: Inhibition of RIPK2-mediated NF-kappaB signalling in MDP-treated human THP-1 cells preincubated for 30 mins followed by MDP addition measured after 24 hrs by luminescence based assay; type: cell-based
[7] = target: T1, Receptor-interacting serine/threonine-protein kinase 2; assay: Inhibition of RIPK2-mediated NF-kappaB signalling in C14-TriLAN-Gly-treated human THP-1 cells preincubated for 30 mins followed by C14-TriLAN-Gly addition measured after 24 hrs by luminescence based assay; type: cell-based
[8] = target: Epidermal growth factor receptor (Homo sapiens) (UniProt P00533); assay: Inhibition of human EGFR relative to control; details: concentration not given here
Epidermal growth factor receptor (Homo sapiens), sequence (P00533 whole entry): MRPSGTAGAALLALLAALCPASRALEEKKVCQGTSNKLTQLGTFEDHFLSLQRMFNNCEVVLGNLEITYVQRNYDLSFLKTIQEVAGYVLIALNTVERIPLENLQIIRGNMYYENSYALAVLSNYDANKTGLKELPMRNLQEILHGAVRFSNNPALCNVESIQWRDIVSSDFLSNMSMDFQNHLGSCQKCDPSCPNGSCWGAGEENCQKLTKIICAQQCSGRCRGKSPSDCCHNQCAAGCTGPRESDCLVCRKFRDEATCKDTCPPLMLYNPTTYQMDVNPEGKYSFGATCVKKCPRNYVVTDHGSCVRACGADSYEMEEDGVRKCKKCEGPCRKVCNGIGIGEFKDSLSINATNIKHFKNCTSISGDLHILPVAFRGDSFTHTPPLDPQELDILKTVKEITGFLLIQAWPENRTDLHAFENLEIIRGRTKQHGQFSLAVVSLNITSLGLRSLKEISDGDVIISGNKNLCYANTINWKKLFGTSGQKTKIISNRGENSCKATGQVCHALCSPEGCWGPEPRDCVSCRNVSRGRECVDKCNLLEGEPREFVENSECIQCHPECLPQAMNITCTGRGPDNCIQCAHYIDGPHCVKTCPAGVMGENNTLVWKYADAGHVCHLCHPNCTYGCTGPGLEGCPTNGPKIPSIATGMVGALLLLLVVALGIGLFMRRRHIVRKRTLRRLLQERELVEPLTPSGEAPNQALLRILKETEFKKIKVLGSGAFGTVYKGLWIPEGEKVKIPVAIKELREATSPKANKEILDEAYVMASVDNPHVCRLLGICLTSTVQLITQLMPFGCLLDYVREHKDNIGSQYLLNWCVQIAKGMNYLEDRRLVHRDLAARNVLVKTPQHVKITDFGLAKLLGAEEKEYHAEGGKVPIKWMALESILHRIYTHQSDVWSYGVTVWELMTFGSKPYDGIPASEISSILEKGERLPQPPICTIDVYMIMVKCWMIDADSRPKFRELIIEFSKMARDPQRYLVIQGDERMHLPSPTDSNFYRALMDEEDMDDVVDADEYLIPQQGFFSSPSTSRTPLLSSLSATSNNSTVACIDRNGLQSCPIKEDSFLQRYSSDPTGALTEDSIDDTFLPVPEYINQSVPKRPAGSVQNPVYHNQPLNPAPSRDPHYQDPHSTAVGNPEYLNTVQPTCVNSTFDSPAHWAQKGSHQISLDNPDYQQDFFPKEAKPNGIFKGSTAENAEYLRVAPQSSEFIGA

[9] = Metabolic stability in human plasma assessed as compound remaining at 5 uM incubated for 120 mins by ECHO-MS analysis; type: ADME, cell-free; details: for remaining at 2 h, 5 µM: read-out: Stability; for Stability: 2 h, 5 µM
[10] = target: Vascular endothelial growth factor receptor 2 (Homo sapiens) (UniProt P35968); assay: Inhibition of human KDR relative to control; parameters: concentration or dose not given beside the values; details: concentration not given here
Vascular endothelial growth factor receptor 2 (Homo sapiens), sequence (P35968 whole entry): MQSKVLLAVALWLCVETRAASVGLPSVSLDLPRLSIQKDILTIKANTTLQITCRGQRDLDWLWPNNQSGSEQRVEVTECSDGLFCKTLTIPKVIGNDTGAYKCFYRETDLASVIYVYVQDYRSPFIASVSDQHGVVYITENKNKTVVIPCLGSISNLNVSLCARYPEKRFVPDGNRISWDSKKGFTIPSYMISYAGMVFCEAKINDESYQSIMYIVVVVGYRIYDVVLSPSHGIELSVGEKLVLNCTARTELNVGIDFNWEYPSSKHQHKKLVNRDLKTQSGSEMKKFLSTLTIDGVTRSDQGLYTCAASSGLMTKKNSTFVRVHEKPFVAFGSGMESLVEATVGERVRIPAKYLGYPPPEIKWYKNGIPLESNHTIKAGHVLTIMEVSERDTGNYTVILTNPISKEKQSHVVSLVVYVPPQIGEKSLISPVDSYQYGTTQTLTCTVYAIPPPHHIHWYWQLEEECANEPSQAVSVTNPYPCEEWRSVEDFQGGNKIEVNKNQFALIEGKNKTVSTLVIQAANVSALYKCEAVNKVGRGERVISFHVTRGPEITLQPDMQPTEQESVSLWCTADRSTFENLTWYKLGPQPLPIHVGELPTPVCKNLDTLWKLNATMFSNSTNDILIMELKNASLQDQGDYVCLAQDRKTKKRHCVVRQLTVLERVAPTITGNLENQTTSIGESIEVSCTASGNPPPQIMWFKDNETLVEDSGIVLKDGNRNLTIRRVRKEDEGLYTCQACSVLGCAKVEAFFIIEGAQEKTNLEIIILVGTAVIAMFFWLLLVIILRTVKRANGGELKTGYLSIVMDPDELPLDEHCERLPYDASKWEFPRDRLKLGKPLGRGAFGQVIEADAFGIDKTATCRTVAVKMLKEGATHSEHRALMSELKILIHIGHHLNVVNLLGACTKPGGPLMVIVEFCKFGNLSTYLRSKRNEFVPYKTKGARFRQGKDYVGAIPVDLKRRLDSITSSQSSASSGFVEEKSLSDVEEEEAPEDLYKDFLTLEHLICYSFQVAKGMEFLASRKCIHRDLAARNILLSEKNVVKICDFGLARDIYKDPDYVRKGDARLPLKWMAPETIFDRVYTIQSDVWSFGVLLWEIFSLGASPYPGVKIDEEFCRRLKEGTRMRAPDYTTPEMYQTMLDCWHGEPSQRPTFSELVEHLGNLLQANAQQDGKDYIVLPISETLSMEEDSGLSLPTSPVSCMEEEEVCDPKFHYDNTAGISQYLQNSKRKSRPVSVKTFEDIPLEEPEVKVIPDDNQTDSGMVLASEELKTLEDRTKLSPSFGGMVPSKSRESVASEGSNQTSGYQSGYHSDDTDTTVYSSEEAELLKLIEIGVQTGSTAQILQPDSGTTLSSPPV

[11] = Metabolic stability in human liver microsomes assessed as compound remaining at 10 uM incubated for 45 mins by ECHO-MS analysis; type: ADME, Microsome; details: for Stability: microsomes, 0.75 h, 10 µM; for remaining at 0.75 h, 10 µM: liver microsomes, read-out: Stability
[12] = Metabolic stability in mouse liver microsomes assessed as compound remaining at 10 uM incubated for 45 mins by ECHO-MS analysis; type: ADME, Microsome; details: read-out: Stability
[13] = target: T3, Receptor-interacting serine/threonine-protein kinase 4 (Homo sapiens, UniProt P57078); assay: Inhibition of N-terminal polyHis-tagged human RIPK4 (1 to 321 residues) expressed in Sf9 cells using MBP as substrate preincubated for 15 mins followed by ATP addition measured after 90 mins by ADP-Glo assay
T3 sequence (P57078 whole entry): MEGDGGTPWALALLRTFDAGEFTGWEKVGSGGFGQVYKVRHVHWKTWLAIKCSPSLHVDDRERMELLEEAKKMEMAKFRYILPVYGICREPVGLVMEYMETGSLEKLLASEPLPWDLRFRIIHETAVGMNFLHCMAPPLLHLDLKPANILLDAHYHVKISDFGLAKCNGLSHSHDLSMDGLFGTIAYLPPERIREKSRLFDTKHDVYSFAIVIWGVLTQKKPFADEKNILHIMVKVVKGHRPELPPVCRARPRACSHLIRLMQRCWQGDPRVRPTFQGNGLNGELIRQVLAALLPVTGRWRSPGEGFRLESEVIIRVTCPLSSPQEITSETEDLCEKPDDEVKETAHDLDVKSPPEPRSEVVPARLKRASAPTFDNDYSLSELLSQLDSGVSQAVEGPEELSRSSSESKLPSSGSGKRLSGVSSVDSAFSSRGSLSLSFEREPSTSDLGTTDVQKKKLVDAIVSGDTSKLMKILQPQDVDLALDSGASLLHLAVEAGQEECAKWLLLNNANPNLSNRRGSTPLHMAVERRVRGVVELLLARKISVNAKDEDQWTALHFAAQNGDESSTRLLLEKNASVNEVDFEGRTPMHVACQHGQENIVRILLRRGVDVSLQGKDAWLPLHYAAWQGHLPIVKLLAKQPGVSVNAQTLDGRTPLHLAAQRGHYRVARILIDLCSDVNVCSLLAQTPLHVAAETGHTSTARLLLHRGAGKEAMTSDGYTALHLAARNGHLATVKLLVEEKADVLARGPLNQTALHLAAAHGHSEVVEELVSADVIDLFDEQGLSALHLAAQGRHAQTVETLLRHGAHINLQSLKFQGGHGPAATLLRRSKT

[14] = target: Tyrosine-protein kinase ABL1 (Homo sapiens) (UniProt P00519); assay: Inhibition of human ABL relative to control; details: concentration not given here
[15] = target: T4, Receptor-interacting serine/threonine-protein kinase 1 (Homo sapiens, UniProt Q13546); assay: Inhibition of N-terminal polyHis-tagged human RIPK1 (1 to 321 residues) expressed in Sf9 cells using MBP as substrate preincubated for 15 mins followed by ATP addition measured after 90 mins by ADP-Glo assay
T4 sequence (Q13546 whole entry): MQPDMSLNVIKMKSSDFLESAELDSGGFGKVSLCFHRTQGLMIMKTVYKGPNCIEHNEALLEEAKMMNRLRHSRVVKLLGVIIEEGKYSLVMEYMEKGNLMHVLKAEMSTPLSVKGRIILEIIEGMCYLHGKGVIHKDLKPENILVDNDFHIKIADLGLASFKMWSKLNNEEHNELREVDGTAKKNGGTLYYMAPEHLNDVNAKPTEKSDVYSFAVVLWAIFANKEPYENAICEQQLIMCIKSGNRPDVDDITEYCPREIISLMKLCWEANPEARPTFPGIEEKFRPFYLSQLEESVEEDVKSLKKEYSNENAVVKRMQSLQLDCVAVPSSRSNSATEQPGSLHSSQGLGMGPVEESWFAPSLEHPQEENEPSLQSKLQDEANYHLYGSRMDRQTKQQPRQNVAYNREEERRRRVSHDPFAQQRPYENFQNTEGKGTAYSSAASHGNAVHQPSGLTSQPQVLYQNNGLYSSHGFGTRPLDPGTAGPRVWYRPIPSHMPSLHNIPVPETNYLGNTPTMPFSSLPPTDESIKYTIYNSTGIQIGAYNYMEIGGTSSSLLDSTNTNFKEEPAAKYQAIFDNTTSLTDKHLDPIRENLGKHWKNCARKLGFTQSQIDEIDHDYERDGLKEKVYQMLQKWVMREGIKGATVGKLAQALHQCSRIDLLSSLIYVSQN

[16] = target: Tyrosine-protein kinase Lyn (Homo sapiens) (UniProt P07948); assay: Inhibition of human LYN relative to control; details: concentration not given here
Tyrosine-protein kinase Lyn (Homo sapiens), sequence (P07948 2-512 limits assumed): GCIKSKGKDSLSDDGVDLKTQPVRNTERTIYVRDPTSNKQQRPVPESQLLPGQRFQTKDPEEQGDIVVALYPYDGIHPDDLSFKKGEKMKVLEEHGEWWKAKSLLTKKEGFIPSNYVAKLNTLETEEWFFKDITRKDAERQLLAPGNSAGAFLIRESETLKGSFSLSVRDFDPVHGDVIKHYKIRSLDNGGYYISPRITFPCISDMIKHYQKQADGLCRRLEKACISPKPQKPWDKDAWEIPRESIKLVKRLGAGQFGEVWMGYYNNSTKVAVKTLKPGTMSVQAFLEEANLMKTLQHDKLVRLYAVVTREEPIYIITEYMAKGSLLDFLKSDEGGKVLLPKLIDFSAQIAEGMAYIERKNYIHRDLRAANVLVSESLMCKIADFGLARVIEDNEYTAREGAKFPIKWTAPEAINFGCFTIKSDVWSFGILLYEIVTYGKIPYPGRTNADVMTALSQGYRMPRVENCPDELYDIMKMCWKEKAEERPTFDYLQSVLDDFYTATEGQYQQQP

[17] = target: T2, Receptor-interacting serine/threonine-protein kinase 3; assay: Inhibition of N-terminal polyHis-tagged human RIPK3 (1 to 307 residues) expressed in Sf9 cells using MBP as substrate upto 10 uM preincubated for 15 mins followed by ATP addition measured after 90 mins by ADP-Glo assay; details: time 105.0 min
Target sequence in this assay (Q9Y572 whole entry, looked up, the tested form may be a part): as the sequence (Q9Y572 whole entry, the tested form may be a part) above

HT-29 = assay: Cytotoxicity against human HT-29 cells assessed as cell viability at 10 uM incubated for 24 hrs by Cell Titer Glo assay; type: toxicity, cell-based; details: ht-29, 24 h
[18] = target: MAP kinase-interacting serine/threonine-protein kinase 2 (Homo sapiens) (UniProt Q9HBH9); assay: Inhibition of human MNK2 relative to control; details: concentration not given here
[19] = target: T1, Receptor-interacting serine/threonine-protein kinase 2; assay: Inhibition of RIPK2-mediated NF-kappaB signalling in C14-TriLAN-Gly-treated human THP-1 cells upto 10 uM preincubated for 30 mins followed by C14-TriLAN-Gly addition measured after 24 hrs by luminescence based assay; type: cell-based
[20] = target: T1, Receptor-interacting serine/threonine-protein kinase 2; assay: Inhibition of RIPK2-mediated NF-kappaB signalling in MDP-treated human THP-1 cells upto 10 uM preincubated for 30 mins followed by MDP addition measured after 24 hrs by luminescence based assay; type: cell-based

IC50 [1] [nM] | remaining at 2 h, 5 µM [4] [%] | IC50 [5] [nM] | IC50 [6] [nM] | IC50 [7] [nM] | inhibition [8] [%] | remaining at 2 h, 5 µM [9] [%] | inhibition [10] [%] | Stability [11] [%] | remaining at 0.75 h, 10 µM [12] [%] | IC50 [13] [nM] | IC50 [15] [nM] | Stability [9] [%] | inhibition [17] | remaining at 0.75 h, 10 µM [11] [%] | Structure (SMILES) | further results
3 | 107 | 117 | 27 | 14 | 79 | 108 | 94 | 124 | 114 | > 50000 | > 50000 |  |  |  | OCc1ccc(-c2cc3ncnc(Nc4ccc5scnc5c4)c3cc2-c2cccs2)o1 | inhibition [2]: 83%; inhibition [3]: 94%; inhibition [14]: 70%; inhibition [16]: 94%
7 | 102 |  | 54 | 146 |  |  |  |  | 105 | > 50000 | > 50000 | 122 | inactive | 94 | Cn1cncc1-c1cc2c(Nc3ccc4scnc4c3)ncnc2cc1Cl | 
3 |  |  | 58 | 183 |  |  |  |  | 115 | > 50000 | > 50000 | 141 | inactive | 105 | Cn1ccnc1-c1cc2c(Nc3ccc4scnc4c3)ncnc2cc1Cl | Stability ([4]; 2 h, 5 µM): 135%
4 | 79 |  | 115 | 119 | 68 |  | 66 |  | 118 | > 50000 | > 50000 | 121 | inactive | 108 | Cn1cncc1-c1ccc2ncnc(Nc3ccc4scnc4c3)c2c1 | 
5 | 119 | 141 | 95 | 119 |  | 112 | 74 | 124 | 93 | > 50000 | > 50000 |  |  |  | Cn1cccc1-c1cc2c(Nc3ccc4scnc4c3)ncnc2cc1-c1cccc(CO)c1 | Activity (HT-29): Toxic
5 | 111 | 464 | 36 | 51 |  | 107 |  |  | 94 | > 50000 | > 50000 |  |  | 108 | C1=C(c2cc3ncnc(Nc4ccc5scnc5c4)c3cc2-c2cccs2)COC1 | 
4 |  | 398 | 120 | 106 | 54 |  | 69 |  |  | > 50000 | > 50000 |  |  |  | c1csc(-c2ccc3ncnc(Nc4ccc5scnc5c4)c3c2)c1 | inhibition [2]: 50%; inhibition [3]: 71%; inhibition [18]: 54%
4 | 108 | 122 | 229 | 225 |  | 113 | 85 | 123 | 118 | > 50000 | > 50000 |  |  |  | Cc1ccsc1-c1cc2c(Nc3ccc4scnc4c3)ncnc2cc1-c1cccc(CO)c1 | Activity (HT-29): Toxic
3900 |  |  |  |  |  |  |  |  |  | > 50000 | > 50000 |  | inactive |  | COc1cccc(-c2cc3c(Nc4ccc5scnc5c4)ncnc3cc2Cl)n1 | IC50 [19]: Not Active; IC50 [20]: Not Active

Structure (SMILES) | IC50 [1] [nM] | remaining at 2 h, 5 µM [4] [%] | IC50 [5] [nM] | IC50 [6] [nM] | IC50 [7] [nM] | inhibition [8] [%] | remaining at 2 h, 5 µM [9] [%] | inhibition [10] [%] | Stability [11] [%] | remaining at 0.75 h, 10 µM [12] [%] | IC50 [13] [nM] | IC50 [15] [nM] | Stability [9] [%] | inhibition [17] | remaining at 0.75 h, 10 µM [11] [%] | further results
CC(C)[N+](C)(CCOC(=O)C1c2ccccc2Oc2ccccc21)C(C)C [PROPANTHELINE] |  | 11 |  |  |  |  | 2 |  |  |  |  |  |  |  |  | 
